Measured values: patent US6946468B1, “3-mercaptopyrrolidines as farnesyl protein transferase inhibitors” (Zeneca Limited, priority 1996, dated 2005)

Molecular target: T1, Farnesyl protein transferase (FPT) (Homo sapiens, UniProt P49354+P49356)
T1 construct: partially purified from human placenta by ammonium sulphate fractionation; from tissue; host or cells: human placenta
Experiment: Farnesyl protein transferase (FPT) inhibition, tritiated farnesyl pyrophosphate incorporation into Kras (ras-CVIM)
Assay type: biochemical
Conditions: FPT partially purified from human placenta; 300 nM tritiated farnesyl pyrophosphate, 120 nM ras-CVIM, 20 minutes at 37°
Protocol: Biological activity was tested as follows. Farnesyl protein transferase (FPT) was partially purified from human placenta by ammonium sulphate fractionation followed by a single Q-Sepharose® (Pharmacia, Inc) anion exchange chromatography essentially as described by Ray and Lopez-Belmonte (Ray K P and Lopez-Belmonte J (1992) Biochemical Society Transations 20 494-497). The substrate for FPT was Kras (CVIM C-terminal sequence). The cDNA for oncogenic val12 variant of human c-Ki-ras-2 4B was obtained from the plasmid pSW11-1 (ATCC). This was then subcloned into the polylinker of a suitable expression vector e.g. pIC147. The Kras was obtained after expression in the E. coli strain, BL21. The expression and purification of c-KI-ras-2 4B and the val12 variant in E. coli has also been reported by Lowe et al (Lowe P N et al. J. Biol. Chem. (1991) 266 1672-1678).
Incubations with enzyme contained 300 nM tritiated farnesyl pyrophosphate (DuPont/New England Nuclear), 120 nM ras-CVIM, 50 mM Tris HCl pH 8.0, 5 mM MgCl2, 10 μM ZnCl2, 5 mM dithiotheitol and compounds were added at appropriate concentrations in DMSO (3% final concentration in test and vehicle control). […] Precipitated protein was then collected onto glass fibre filter mats (B) using a Tomte® cell harvester and tritiated label was measured in a Wallac®1204 Betaplate scintillation counter.

IC50: ~420 nM
Compound: O=C(Cc1cccnc1)N(CC(c1ccccc1)c1ccccc1)C[C@@H]1NCC[C@@H]1S (relative stereo) [Example 2]
